# Molecular target: recombinant human integrin αvβ6 (Homo sapiens (Human), UniProt P06756+P18564)
# Experiment: Solid phase integrin αvβ6 binding assay
# Conditions: plate-coated integrin; recombinant TGFβ1 LAP 0.67 ug/ml as ligand; 2 hours at 25° C.; read-out: αvβ6 Inhibition IC50 (nM) - range
# Protocol: Example B1—Solid Phase Integrin αvβ6 Binding Assay
# Microplates were coated with recombinant human integrin αvβ6 (2 ug/ml) in PBS (100 ul/well 25° C., overnight). The coating solution was removed, washed with wash buffer (0.05% Tween 20; 0.5 mM MnCl2; in 1×TBS). Plate was blocked with 200 ul/well of Block Buffer (1% BSA; 5% sucrose; 0.5 mM MnCl2; in 1×TBS) at 37° C. for 2 h. Dilutions of testing compounds and recombinant TGFβ1 LAP (0.67 ug/ml) in binding buffer (0.05% BSA; 2.5% sucrose; 0.5 mM MnCl2; in 1×TBS) were added. The plate was incubated for 2 hours at 25° C., washed, and incubated for 1 hour with Biotin-Anti-hLAP. Bound antibody was detected by peroxidase-conjugated streptavidin. The IC50 values for testing compounds were calculated by a four-parameter logistic regression.
# The compounds tested were compound samples prepared according to procedures described in the Synthetic Examples section, with the stereochemical purity as indicated in the Examples indicated.
# Sequence of recombinant human integrin αvβ6 (P06756 31-992): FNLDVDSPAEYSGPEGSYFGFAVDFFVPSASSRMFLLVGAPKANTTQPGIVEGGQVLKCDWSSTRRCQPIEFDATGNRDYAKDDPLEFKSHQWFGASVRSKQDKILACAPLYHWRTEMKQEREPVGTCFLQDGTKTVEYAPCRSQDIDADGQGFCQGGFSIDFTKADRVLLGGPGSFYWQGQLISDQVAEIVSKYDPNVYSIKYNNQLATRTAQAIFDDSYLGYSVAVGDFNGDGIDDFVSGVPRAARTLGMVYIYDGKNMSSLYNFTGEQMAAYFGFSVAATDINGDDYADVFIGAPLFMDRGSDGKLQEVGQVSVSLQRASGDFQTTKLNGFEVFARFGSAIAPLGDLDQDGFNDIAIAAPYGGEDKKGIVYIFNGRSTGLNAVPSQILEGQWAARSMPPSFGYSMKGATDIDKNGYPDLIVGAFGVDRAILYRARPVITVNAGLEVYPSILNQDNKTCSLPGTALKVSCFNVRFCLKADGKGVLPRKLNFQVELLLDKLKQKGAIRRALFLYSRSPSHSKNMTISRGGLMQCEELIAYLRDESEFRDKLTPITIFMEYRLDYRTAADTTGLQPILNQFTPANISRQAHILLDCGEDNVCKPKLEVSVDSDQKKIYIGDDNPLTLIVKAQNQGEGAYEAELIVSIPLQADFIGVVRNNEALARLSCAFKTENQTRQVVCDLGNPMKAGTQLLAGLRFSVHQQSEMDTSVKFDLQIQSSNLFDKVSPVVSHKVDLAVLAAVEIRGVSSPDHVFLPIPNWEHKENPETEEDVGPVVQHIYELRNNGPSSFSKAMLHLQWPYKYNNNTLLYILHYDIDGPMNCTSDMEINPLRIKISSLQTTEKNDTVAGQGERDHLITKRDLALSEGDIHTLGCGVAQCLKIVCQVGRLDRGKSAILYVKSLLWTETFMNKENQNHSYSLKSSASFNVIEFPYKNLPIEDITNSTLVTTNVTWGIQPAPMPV
# Sequence of recombinant human integrin αvβ6 (P18564 22-707): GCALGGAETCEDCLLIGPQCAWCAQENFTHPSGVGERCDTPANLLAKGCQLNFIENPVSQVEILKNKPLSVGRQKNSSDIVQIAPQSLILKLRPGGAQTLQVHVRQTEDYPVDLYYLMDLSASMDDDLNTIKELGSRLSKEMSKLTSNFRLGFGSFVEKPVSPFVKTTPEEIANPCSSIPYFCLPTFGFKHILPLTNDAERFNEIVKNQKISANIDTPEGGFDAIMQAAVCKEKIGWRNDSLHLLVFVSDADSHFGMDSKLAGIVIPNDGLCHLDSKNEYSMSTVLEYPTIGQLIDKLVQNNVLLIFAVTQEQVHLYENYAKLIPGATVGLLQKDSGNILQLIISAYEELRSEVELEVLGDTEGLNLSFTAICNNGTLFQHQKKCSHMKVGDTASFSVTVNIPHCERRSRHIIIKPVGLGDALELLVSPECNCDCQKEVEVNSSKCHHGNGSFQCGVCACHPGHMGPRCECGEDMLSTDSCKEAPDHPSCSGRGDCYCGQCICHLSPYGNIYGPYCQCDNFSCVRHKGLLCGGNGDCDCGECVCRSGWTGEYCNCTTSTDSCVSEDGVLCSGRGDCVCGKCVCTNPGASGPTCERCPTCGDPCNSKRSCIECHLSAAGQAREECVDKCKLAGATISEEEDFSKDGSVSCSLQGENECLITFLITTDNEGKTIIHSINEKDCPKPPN
row,Structure (SMILES),IC50 [nM]
1,N#Cc1cc(Cl)c(C(=O)NC(CCN2CC[C@@H](CCc3ccc4c(n3)NCCC4)C2)C(=O)O)c(Cl)c1 (some centres unmarked) [7a and 7c],< 50
2,Cc1cc(C)n(-c2cccc(C(=O)NC(CCN3CC[C@@H](CCc4ccc5c(n4)NCCC5)C3)C(=O)O)c2)n1 (some centres unmarked) [13a and 13c],< 50
3,O=C(NC(CCN1CC[C@@H](CCc2ccc3c(n2)NCCC3)C1)C(=O)O)c1c(Cl)cncc1Cl (some centres unmarked) [20a and 20c],< 50
4,O=C(NC(CCN1CC[C@@H](CCc2ccc3c(n2)NCCC3)C1)C(=O)O)C1CCN(C2CC2)CC1 (some centres unmarked) [23a and 23c],50 to 250
5,"CC(C)(C)C(=O)N[C@H](CCN1CC[C@@H](CCc2ccc3c(n2)NCCC3)C1)C(=O)O [Compound 1c, (R)-2-pivalamido-4-((R)-3-(2-(5,6,7,8-tetrahydro-1,8-naphthyridin-2-yl)ethyl)pyrrolidin-1-yl)butanoic acid]",< 50
6,"CC(C)(C)OC(=O)N[C@@H](CCN1CC[C@@H](CCc2ccc3c(n2)NCCC3)C1)C(=O)O [Compound 2a, (S)-2-((tert-butoxycarbonyl)amino)-4-((R)-3-(2-(5,6,7,8-tetrahydro-1,8-naphthyridin-2-yl)ethyl)pyrrolidin-1-yl)butanoic acid]",< 50
7,O=C(N[C@@H](CCN1CC[C@@H](CCc2ccc3c(n2)NCCC3)C1)C(=O)O)c1cc(OC(F)(F)F)ccc1Cl [Compound 11a],< 50
8,"Cc1cc(C)n(-c2cccc(C(=O)N[C@@H](CCN3CCC(CCc4ccc5c(n4)NCCC5)CC3)C(=O)O)c2)n1 [Compound 12a, (S)-2-(3-(3,5-dimethyl-1H-pyrazol-1-yl)benzamido)-4-(4-(2-(5,6,7,8-tetrahydro-1,8-naphthyridin-2-yl)ethyl)piperidin-1-yl)butanoic acid]",> 1000
9,"Cc1cc(C)n(-c2cccc(C(=O)N[C@@H](CCN3CC[C@@H](CCc4ccc5c(n4)NCCC5)C3)C(=O)O)c2)n1 [Compound 13a, (S)-2-(3-(3,5-dimethyl-1H-pyrazol-1-yl)benzamido)-4-((R)-3-(2-(5,6,7,8-tetrahydro-1,8-naphthyridin-2-yl)ethyl)pyrrolidin-1-yl)butanoic acid]",< 50
10,"O=C(N[C@@H](CCN1CC[C@@H](CCc2ccc3c(n2)NCCC3)C1)C(=O)O)c1ccccc1N1CCOCC1 [Compound 14a, (S)-2-(2-morpholinobenzamido)-4-((R)-3-(2-(5,6,7,8-tetrahydro-1,8-naphthyridin-2-yl)ethyl)pyrrolidin-1-yl)butanoic acid]",50 to 250
11,"O=C(N[C@@H](CCN1CC[C@@H](CCc2ccc3c(n2)NCCC3)C1)C(=O)O)c1cccc(N2CCOCC2)c1 [Compound 15a, (S)-2-(3-morpholinobenzamido)-4-((R)-3-(2-(5,6,7,8-tetrahydro-1,8-naphthyridin-2-yl)ethyl)pyrrolidin-1-yl)butanoic acid]",< 50
12,"O=C(N[C@@H](CCN1CC[C@@H](CCc2ccc3c(n2)NCCC3)C1)C(=O)O)c1ccc(N2CCOCC2)cc1 [Compound 16a, (S)-2-(4-morpholinobenzamido)-4-((R)-3-(2-(5,6,7,8-tetrahydro-1,8-naphthyridin-2-yl)ethyl)pyrrolidin-1-yl)butanoic acid]",> 1000
13,"O=C(N[C@@H](CCN1CC[C@@H](CCc2ccc3c(n2)NCCC3)C1)C(=O)O)C1CCC(F)(F)CC1 [Compound 21a, (S)-2-(4,4-difluorocyclohexane-1-carboxamido)-4-((R)-3-(2-(5,6,7,8-tetrahydro-1,8-naphthyridin-2-yl)ethyl)pyrrolidin-1-yl)butanoic acid]",< 50
14,"O=C(N[C@H](CCN1CC[C@@H](CCc2ccc3c(n2)NCCC3)C1)C(=O)O)C1CCC(F)(F)CC1 [Compound 21c, (R)-2-(4,4-difluorocyclohexane-1-carboxamido)-4-((R)-3-(2-(5,6,7,8-tetrahydro-1,8-naphthyridin-2-yl)ethyl)pyrrolidin-1-yl)butanoic acid]",< 50
15,"CC1(C(=O)N[C@@H](CCN2CC[C@@H](CCc3ccc4c(n3)NCCC4)C2)C(=O)O)CCOCC1 [Compound 22a, (S)-2-(4-methyltetrahydro-2H-pyran-4-carboxamido)-4-((R)-3-(2-(5,6,7,8-tetrahydro-1,8-naphthyridin-2-yl)ethyl)pyrrolidin-1-yl)butanoic acid]",50 to 250
16,"Cn1ncc2c(C(=O)N[C@@H](CCN3CC[C@@H](CCc4ccc5c(n4)NCCC5)C3)C(=O)O)cccc21 [Compound 27a, (S)-2-(1-methyl-1H-indazole-4-carboxamido)-4-((R)-3-(2-(5,6,7,8-tetrahydro-1,8-naphthyridin-2-yl)ethyl)pyrrolidin-1-yl)butanoic acid]",< 50

# Continued, values first:
row,IC50 [nM],Structure (SMILES)
1,< 50,O=C(NC(CCN1CC[C@@H](CCc2ccc3c(n2)NCCC3)C1)C(=O)O)c1ccccc1 (some centres unmarked) [3a and 3c]
2,< 50,Cc1cccc(C)c1C(=O)NC(CCN1CC[C@@H](CCc2ccc3c(n2)NCCC3)C1)C(=O)O (some centres unmarked) [4a and 4c]
3,< 50,O=C(NC(CCN1CC[C@@H](CCc2ccc3c(n2)NCCC3)C1)C(=O)O)c1ccc2ocnc2c1 (some centres unmarked) [31a and 31c]
4,< 50,"O=C(N[C@@H](CCN1CC[C@@H](CCc2ccc3c(n2)NCCC3)C1)C(=O)O)c1cccc(F)c1Cl [Compound 5a, (S)-2-(2-chloro-3-fluorobenzamido)-4-((R)-3-(2-(5,6,7,8-tetrahydro-1,8-naphthyridin-2-yl)ethyl)pyrrolidin-1-yl)butanoic acid]"
5,< 50,"O=C(N[C@@H](CCN1CC[C@@H](CCc2ccc3c(n2)NCCC3)C1)C(=O)O)c1c(Cl)cccc1Cl [Compound 6a, (S)-2-(2,6-dichlorobenzamido)-4-((R)-3-(2-(5,6,7,8-tetrahydro-1,8-naphthyridin-2-yl)ethyl)pyrrolidin-1-yl)butanoic acid]"
6,250 to 1000,"O=C(N[C@H](CCN1CC[C@@H](CCc2ccc3c(n2)NCCC3)C1)C(=O)O)c1c(Cl)cccc1Cl [Compound 6c, (R)-2-(2,6-dichlorobenzamido)-4-((R)-3-(2-(5,6,7,8-tetrahydro-1,8-naphthyridin-2-yl)ethyl)pyrrolidin-1-yl)butanoic acid]"
7,< 50,"O=C(N[C@@H](CCN1CC[C@@H](CCc2ccc3c(n2)NCCC3)C1)C(=O)O)c1ccccc1C(F)(F)F [Compound 8a, (S)-4-((R)-3-(2-(5,6,7,8-tetrahydro-1,8-naphthyridin-2-yl)ethyl)pyrrolidin-1-yl)-2-(2-(trifluoromethyl)benzamido)butanoic acid]"
8,< 50,"O=C(N[C@@H](CCN1CC[C@@H](CCc2ccc3c(n2)NCCC3)C1)C(=O)O)c1cccc(C(F)(F)F)c1 [Compound 9a, (S)-4-((R)-3-(2-(5,6,7,8-tetrahydro-1,8-naphthyridin-2-yl)ethyl)pyrrolidin-1-yl)-2-(3-(trifluoromethyl)benzamido)butanoic acid]"
9,< 50,"O=C(N[C@@H](CCN1CC[C@@H](CCc2ccc3c(n2)NCCC3)C1)C(=O)O)c1ccc(C(F)(F)F)cc1 [Compound 10a, (S)-4-((R)-3-(2-(5,6,7,8-tetrahydro-1,8-naphthyridin-2-yl)ethyl)pyrrolidin-1-yl)-2-(4-(trifluoromethyl)benzamido)butanoic acid]"
10,< 50,"Cc1cc(C)n(-c2cccc(C(=O)N[C@H](CCN3CC[C@@H](CCc4ccc5c(n4)NCCC5)C3)C(=O)O)c2)n1 [Compound 13c, (R)-2-(3-(3,5-dimethyl-1H-pyrazol-1-yl)benzamido)-4-((R)-3-(2-(5,6,7,8-tetrahydro-1,8-naphthyridin-2-yl)ethyl)pyrrolidin-1-yl)butanoic acid]"
11,50 to 250,"O=C(N[C@@H](CCN1CC[C@@H](CCc2ccc3c(n2)NCCC3)C1)C(=O)O)c1ccccn1 [Compound 17a, (S)-2-(picolinamido)-4-((R)-3-(2-(5,6,7,8-tetrahydro-1,8-naphthyridin-2-yl)ethyl)pyrrolidin-1-yl)butanoic acid]"
12,< 50,"O=C(N[C@@H](CCN1CC[C@@H](CCc2ccc3c(n2)NCCC3)C1)C(=O)O)c1ccncc1 [Compound 18a, (S)-2-(isonicotinamido)-4-((R)-3-(2-(5,6,7,8-tetrahydro-1,8-naphthyridin-2-yl)ethyl)pyrrolidin-1-yl)butanoic acid]"
13,50 to 250,"O=C(N[C@@H](CCN1CC[C@@H](CCc2ccc3c(n2)NCCC3)C1)C(=O)O)c1cccnc1 [Compound 19a, (S)-2-(nicotinamido)-4-((R)-3-(2-(5,6,7,8-tetrahydro-1,8-naphthyridin-2-yl)ethyl)pyrrolidin-1-yl)butanoic acid]"
14,< 50,"Cn1ncc2ccc(C(=O)N[C@@H](CCN3CC[C@@H](CCc4ccc5c(n4)NCCC5)C3)C(=O)O)cc21 [Compound 24a, (S)-2-(1-methyl-1H-indazole-6-carboxamido)-4-((R)-3-(2-(5,6,7,8-tetrahydro-1,8-naphthyridin-2-yl)ethyl)pyrrolidin-1-yl)butanoic acid]"
15,50 to 250,"Cn1ncc2cc(C(=O)N[C@@H](CCN3CC[C@@H](CCc4ccc5c(n4)NCCC5)C3)C(=O)O)ccc21 [Compound 25a, (S)-2-(1-methyl-1H-indazole-5-carboxamido)-4-((R)-3-(2-(5,6,7,8-tetrahydro-1,8-naphthyridin-2-yl)ethyl)pyrrolidin-1-yl)butanoic acid]"
16,< 50,"O=C(N[C@@H](CCN1CC[C@@H](CCc2ccc3c(n2)NCCC3)C1)C(=O)O)c1cccc2cn[nH]c12 [Compound 26a, (S)-2-(1H-indazole-7-carboxamido)-4-((R)-3-(2-(5,6,7,8-tetrahydro-1,8-naphthyridin-2-yl)ethyl)pyrrolidin-1-yl)butanoic acid]"
